Reference: patent US20110124650A1, “STABLE CRYSTALLINE SALTS OF ANTIFOLATE COMPOUNDS” (Chelsea Therapeutics, Inc., priority 2009, published 2011)

How the values were obtained:
[1] = Polymorph stress test: purity by HPLC-UV after storage; type: physicochemical; conditions: for Purity by HPLC-UV, average: average over time points
Method: Samples of polymorph Form Ib and polymorph Form II were analyzed for purity by HPLC-UV according to method AM-5-ASP001 performed by gradient liquid chromatography with UV-detection at 237 nm. A Hypersil GOLD column from Thermo Scientific (250×4.6 mm, 5 μm) was used at a temperature of 30° C. A Dionex STH 585 column oven was used with a Dionex P580 gradient pump and a flow rate of 1.0 ml/min (gradient elution). A Dionex Degasys DG-1210 degasser and a Gynkotek Gina 50 autosampler injector were used with an injection volume of 5 μL. A Dionex PDA-100 photodiode array detector was used at a wavelength of 237 nm. Sample runtime was 46 minutes. The samples were tested on the day of synthesis (zero point) and at 1, 2, and 4 weeks storage at ambient conditions (i.e., room temperature and room humidity), at 25° C. (+/−2° C.) and 60% relative humidity (RH) (+/−5% RH), and at 40° C. (+/−2° C.) and 75 RH (+/−5% RH). Test results are provided in Table 8 (Form Ib) and Table 9 (Form II), wherein the values provided are the area %.

[2] = Polymorph stress test: water content by Karl Fisher titration after storage; type: physicochemical; conditions: for Water content (Karl Fisher): dipotassium salt
Method: Samples of polymorph Form Ib and polymorph Form II also were analyzed for water content using Karl Fisher titration according to method AM-1-General/water content. A columetric Karl Fisher titrator (DL39, Mettler Toledo) was used with a Stromboli drying oven (Mettler Toledo), a generator electrode, and a standard analytical balance (at least […] accuracy). Instrument conditions were set for an oven temperature of 150° C., a gas flow rate of 100.0 mL/min, and a stirrer speed of 50%. Control parameters were set for a max time of 600 s, a current of 2.0 μA, an end point of 100 mV, and a generation speed set at normal. The samples were tested on the day of synthesis (zero point) and at 1, 2, and 4 weeks storage at ambient conditions (i.e., room temperature and room humidity), at 25° C. (+/−2° C.) and 60% relative humidity (RH) (+/−5% RH), and at 40° C. (+/−2° C.) and 75% RH (+/−5% RH). Test results are provided in Table 10 (Form Ib) and Table 11 (Form II), wherein the values provided are the percent water content.

[3] = 1 week storage, 25° C./60% RH, dipotassium salt
[4] = 1 week storage, 40° C./75% RH, dipotassium salt
[5] = 1 week storage, ambient conditions, dipotassium salt
[6] = 2 weeks storage, 25° C./60% RH, dipotassium salt
[7] = 2 weeks storage, 40° C./75% RH, dipotassium salt
[8] = 2 weeks storage, ambient conditions, dipotassium salt
[9] = 4 weeks storage, 25° C./60% RH, dipotassium salt
[10] = 4 weeks storage, 40° C./75% RH, dipotassium salt
[11] = 25° C./60% RH, dipotassium salt
[12] = 40° C./75% RH, dipotassium salt
[13] = ambient conditions, dipotassium salt
[14] = zero point (day of synthesis), dipotassium salt
[15] = 1 week storage, ambient conditions
[16] = 2 weeks storage, ambient conditions
[17] = 4 weeks storage, ambient conditions
[18] = 25° C. (+/−2° C.) and 60% relative humidity (+/−5% RH)

Compound	Purity by HPLC-UV [1, 3] [area %]	Purity by HPLC-UV [1, 4] [area %]	Purity by HPLC-UV [1, 5] [area %]	Purity by HPLC-UV [1, 6] [area %]	Purity by HPLC-UV [1, 7] [area %]	Purity by HPLC-UV [1, 8] [area %]	Purity by HPLC-UV [1, 9] [area %]	Purity by HPLC-UV [1, 10] [area %]	Purity by HPLC-UV, average [1, 11] [area %]	Purity by HPLC-UV, average [1, 12] [area %]	Purity by HPLC-UV, average [1, 13] [area %]	Purity by HPLC-UV [1, 14] [area %]	Water content (Karl Fisher) ([2]; 1 week storage, 25° C./60% RH) [%]	Water content (Karl Fisher) ([2]; 1 week storage, 40° C./75% RH) [%]	Water content (Karl Fisher) [2, 15] [%]	Water content (Karl Fisher) ([2]; 2 weeks storage, 25° C./60% RH) [%]	Water content (Karl Fisher) ([2]; 2 weeks storage, 40° C./75% RH) [%]	Water content (Karl Fisher) [2, 16] [%]	Water content (Karl Fisher) ([2]; 4 weeks storage, 25° C./60% RH) [%]	Water content (Karl Fisher) ([2]; 4 weeks storage, 40° C./75% RH) [%]	also measured
C=C(C[C@H](NC(=O)c1ccc(CCc2ccc3nc(N)nc(N)c3c2)cc1)C(=O)[O-])C(=O)[O-].[K+].[K+] [Form II, (S)-2-{4-[2-(2,4-diamino-quinazolin-6-yl)-ethyl]-benzoylamino}-4-methylene-pentanedioic acid, dipotassium salt]	96.53	96.43	96.42	96.24	96.35	96.49	96.24	95.52	96.44	96.10	96.49	96.46	17.0	21.2	18.7	16.3	24.4	21.1	16.5	26.6	Water content (Karl Fisher) [2, 17]: 21.9%; Storage stability (in words) [2, 18]: stable; Water uptake on storage (in words) [2, 18]: no significant water uptake; Water content (Karl Fisher) ([2]; zero point (day of synthesis)): 15.6%
C=C(C[C@H](NC(=O)c1ccc(CCc2ccc3nc(N)nc(N)c3c2)cc1)C(=O)[O-])C(=O)[O-].[K+].[K+] [Form I, (S)-2-{4-[2-(2,4-diamino-quinazolin-6-yl)-ethyl]-benzoylamino}-4-methylene-pentanedioic acid, dipotassium salt]	–	–	–	–	–	–	–	–	–	–	–	–	–	–	–	–	–	–	–	–	Water uptake on storage (in words) [2, 18]: no significant water uptake
C=C(C[C@H](NC(=O)c1ccc(CCc2ccc3nc(N)nc(N)c3c2)cc1)C(=O)[O-])C(=O)[O-].[K+].[K+] [Form Ib, (S)-2-{4-[2-(2,4-diamino-quinazolin-6-yl)-ethyl]-benzoylamino}-4-methylene-pentanedioic acid, dipotassium salt]	95.96	95.87	95.87	95.67	95.43	95.78	95.85	95.34	95.83	95.55	95.88	95.94	16.0	19.6	16.2	15.5	22.7	16.5	16.4	26.8	Purity by HPLC-UV [1, 17]: 95.91 area %; Water content (Karl Fisher) [2, 17]: 18.4%; Water content (Karl Fisher) ([2]; zero point (day of synthesis)): 14.8%
